Assay results published in patent publication EP0132130A2, “Aroyl benzofuran and benzothiophene acetic and propionic acids processes for their production and pharmaceutical compositions containing them” (SYNTEX (U.S.A.) INC., priority 1983, dated 1985).

How the values were obtained:
[1] = test system: carrageenin induced paw inflammation; assay: Screening test for anti-inflammatory activity: carrageenin induced paw inflammation in the rat (method of Winter et al.); type: in vivo; details: activity relative to phenylbutazone = 1; oral by gavage at hour 0, female rats, carrageenin at hour 1, paws weighed at hour 4
Description: Initial small animal screening tests to determine anti-inflammatory activity potential include the carrageenin induced paw inflammation in the rat according to the method of Winter, et al., Proc. Soc. Exp. Biol. Med., 111:544-547, (1962) and the cotton pellet granuloma test in the rat according to the method of Meier, et al Experientia 6:469-471, (1950) and modifications thereof. The oral anti-inflammatory activity is determined utilizing carrageenin induced paw inflammation in the rat in accordance with the method of Winter, et al., Pro.Soc.Exp.Biol.Med., III:544-547, (1962). Female rats weighing 80-90 grams are used. The test materials are given at hour 0 orally by gavage in 1 ml of aqueous vehicle. At hour 1, 0.05 ml of a 1% solution (in 0.9% NaCl) of carrageenin is injected into the right hind paw. This injection causes inflammation of the paw. The rats are sacrificed at hour 4, at which time both hind paws are removed and weighed separately. The percent increase in paw size is calculated as follows: • Wt. of right paw - Wt of left ^paw X 100 […] The smaller the percent increase in paw size, the lesser the degree of inflammation and the greater the anti-inflammatory activity. Compounds of this invention show anti-inflammatory activity in this test as illustrated in Table 1 below.

[2] = test system: phenylquinone induced writhing; assay: Screening test for analgetic activity: mouse analgetic (anti-writhing) assay (method of Hendershot & Forsaith); type: in vivo; details: activity relative to aspirin = 1; oral by gavage, male Swiss-Webster mice, phenylquinone IP twenty minutes later
Description: Small animal screening tests to determine analgetic activity potential include the mouse analgetic (anti-writhing) assay according to the method of Hendershot and Forsaith, J. Pharmacol. Exp. Ther., 125:237-240, (1959).
The oral analgetic activity potential is determined utilizing the mouse analgetic (anti-writhing) assay in accordance with the method of Hendershot & Forsaith, J.Pharmacol.Exp.Ther., 125:237-240, (1959).
The test material is administered orally by gavage in an aqueous vehicle at time 0 to 18-20 gram male Swiss-Webster mice. Twenty minutes later 0.5 ml of a 0.02% solution of phenylquinone is injected IP. This solution induces writhing.
The total number of mice that writhe and the average number of writhes per mouse indicates the activity of the compound tested; the fewer writhes per mouse indicates a greater activity. Compounds of this invention show analgetic activity in this assay as illustrated in Table 2 below.

Structure (SMILES)	(Phenylbutazone = 1) Antiinflammatory Activity [1]	Analgesic Activity (Aspirin = 1) [2]
O=C(O)Cc1cc(C(=O)c2ccc(Cl)cc2)c2occc2c1 [7-(4-chlorobenzoyl)benzofuran-5-ylacetic acid]	0.5	32
O=C(O)Cc1cc(C(=O)c2ccccc2)c2occc2c1 [Ar=phenyl, R1=H, X1=O, X2=O, R2=H, R3=H, 7-benzoylbenzofuran-5-ylacetic acid]	1	25
CC(C(=O)O)c1cc(C(=O)c2ccccc2)c2occc2c1 (racemic) [d,l 2-(7-benzoylbenzofuran-5-yl)propionic acid]	2	50
O=C(O)Cc1cc(C(=O)c2ccc(Cl)cc2)c2sccc2c1 [7-(4-chlorobenzoyl)benzothiophen-5-ylacetic acid]	1.5	7
CC(C(=O)O)c1cc(C(=O)c2ccc(Cl)cc2)c2occc2c1 (racemic) [d.1-2-(7-(4-chlorobenzoyl)benzofuran-5-yl)-propionic acid]	4	35
CSc1ccc(C(=O)c2cc(C(C)C(=O)O)cc3ccoc23)cc1 (racemic) [d,l 2-(7-(4-methylthiobenzoyl)benzofuran-5-yl)-propionic acid]	15	25
CSc1ccc(C(=O)c2cc(CC(=O)O)cc3ccoc23)cc1 [7-(4-methylthiobenzoyl)benzofuran-5-ylacetic acid]	1.5	95
